Assay [1] has as its system secretion of gastric fluids. Briefly: anti-secretory activity in pylorus-ligated rats (method of Shay et al.). Format: in vivo, male albino Wistar rats. The settings on record: for inhibition in vivo at 100 mg/kg: Rattus norvegicus, 5 h, read-out: % Inhibition of Free Acid; for inhibition in vivo at 100 mg/kg / pH of the gastric fluid: 100 mg./kg. Here is the method: In standard biological test procedures, described generally by Shay et al., Gastroenterology 5, 43 (1945) and 26, 906 (1954) and by Selmici et al., Acta Physiol. Acad. Sci. Hung. […] Anti-secretory activity was determined in male albino Wistar rats weighing approximately 180 g. using the method described by Shay et al. which is described as follows: the rats were divided into medicated groups of at least five rats each and control groups of ten rats. The rats were medicated orally once daily for 2 days prior to stomach ligation and once again immediately following ligation. All drugs were administered as the free base, and control rats received only the vehicle of medication. The rats were housed individually in wire cages, food was withdrawn 48 hours prior to surgery, and water was withdrawn at the time of surgery. Laparotomy was performed under light ether anesthesia, the pyloric-duodenal junction was ligated, and the wound was closed with metal clips and sprayed with a protective surgical dressing. Five hours following surgery, the rats were sacrificed, the stomach was removed, and the gastric juice collected. The gastric fluid was centrifuged, the total volume, color, and volume of solids were recorded. The pH of the gastric fluid was then determined on a Beckman pH meter, and the "free" and "total" hydrochloric acid content of each gastric sample was determined by titrating an aliquot of the gastric fluid (diluted to approximately 10 ml. with distilled water) by titrating with 0.1N sodium hydroxide against Toepfers reagent and phenolphthalein, respectively. By determining the milliequivalents of hydrochloric acid per milliliter of gastric juice and knowing the total volume of gastric juice secreted by each rat, the total acid output can be calculated. Since pH is a function of "free" acid, the activity of the test compounds can be evaluated by comparison of the mean "free" acid of medicated rats with the mean "free" acid of the controls, and the activity can thus be expressed in terms of percent inhibition of free acid.
(§1) Data obtained on administration of the compounds of formula I in rats in the anti-secretory and anti-ulcer tests described above are given in the table below. Unless noted otherwise, data were obtained on oral administration. Results in the anti-secretory activity tests are given in terms of the pH of the gastric fluid in the test animals and the percent inhibition of free acid, while results in the anti-ulcer test are given either in terms of the percent inhibition of ulcers or as a ratio representing the number of animals with ulcers (as the numerator) to the total number of animals in the test group (as the denominator). All doses are expressed in mg./kg.

Assay [2] relates to reserpine-induced stomach ulceration. The experiment in a line: anti-ulcer activity, reserpine-induced ulcer test (method of Selmici et al.). Format: in vivo, male, albino, Sprague-Dawley rats. The settings on record: for inhibition in vivo at 25 mg/kg / inhibition in vivo at 100 mg/kg / inhibition in vivo at 50 mg/kg: Rattus norvegicus, 18 h; for inhibition in vivo at 25 mg/kg / inhibition in vivo at 100 mg/kg / inhibition in vivo at 50 mg/kg / Anti-Ulcer: ratio of number of animals with ulcers to total number of animals in the test group: oral; for inhibition in vivo at 100 mg/kg / Anti-Ulcer: ratio of number of animals with ulcers to total number of animals in the test group: 100 mg./kg. How it is done:
The anti-ulcer activity of the compounds was determined using the reserpine-induced anti-ulcer test method, described by Selmici et al., which is described briefly as follows: male, albino, Sprague-Dawley rats, weighing approximately 300 g., were divided into medicated and control groups of at least five rats each, and one positive control group of five rats medicated with a known drug at the active dose was run with each experiment. The rats were medicated forty-eight, twenty-four, and one hour before receiving an injection of reserpine. All test drugs were administered orally in terms of base, and the control rats received only the vehicle of medication. The rats were housed individually in wire cages, and food was withdrawn 24 hours prior to injection of reserpine, while water was allowed ad libitum. One hour following the third medication, 5.0 mg. of reserpine per kilogram of body weight in a concentration of 5 mg./ml. was injected intramuscularly in each rat. Eighteen hours after injection the rats were sacrificed, their stomachs removed, opened along the greater curvature, rinsed in warm saline, and pinned to a cork board for gross observation. The stomachs were examined for the number and size of ulcerations located in the glandular portion of the stomach with the aid of a one millimeter grid ocular with a 10x dissecting microscope. The degree of ulceration was arbitrarily graded according to the number and size of the ulcers as follows:
The points were added together and divided by the number of rats in each group to give an ulcer score, and the difference in the mean scores of the medicated and control group was expressed as percent inhibition of ulceration. Alternatively, the results can be expressed as a ratio of the total number of rats with any degree of ulceration (as the numerator) to the total number of rats in the test group (as the denominator).
as §1

Assay [3] has the same test system. The description is as above. Format: in vivo, male, albino, Sprague-Dawley rats. The settings on record: s.c., 50 mg./kg.

Where two headings read alike, the source gives them in different places.

For the compound `Cc1c(C)n(CCC(=O)NCCCO)c2ccccc12` [Example 3E, β-(2,3-Dimethyl-1-indole)-N-(3-hydroxypropyl)propionamide], the inhibition in vivo at 100 mg/kg in assay [1] (po, oral) amounted to 34%. Besides, in assay [1] (oral), the “pH of the gastric fluid” value was 1.4. For the same compound, the inhibition in vivo at 25 mg/kg in assay [2] is 51%.
As for `Cc1c(C)n(CCC(N)=S)c2ccccc12` [Example 7B, β(2,3-dimethyl-1-indole)thiopropionamide], the inhibition in vivo at 100 mg/kg in assay [1] (po, oral) stood at 60%; in assay [2] it was 100%. The “pH of the gastric fluid” value in assay [1] (oral) amounted to 2.2.
Consider `Cc1c(C)n(CCC(=O)NCCO)c2ccccc12` [Example 3D, β-(2,3-Dimethyl-1-indole)-N-(2-hydroxyethyl)propionamide], for which, in assay [1] (oral), the “pH of the gastric fluid” value stood at 1.2. The compound also showed an inhibition in vivo at 25 mg/kg in assay [2] of 48%.
As for `Cc1c(C)n(C(N)=O)c2ccc(Cl)cc12` [Example 5, 2,3-dimethyl-5-chloro-1-indolecarboxamide], the inhibition in vivo at 100 mg/kg in assay [1] (po, oral) came out at 41%. Moreover, the “pH of the gastric fluid” value in assay [1] (oral) amounted to 2.0. The compound also returned an inhibition in vivo at 25 mg/kg in assay [2] of 0%.
Consider `Cc1c(C(O)C(F)(F)F)c2ccccc2n1CCC(N)=O` (stereo not drawn) [Example 8F, β-[2-Methyl-3-(2-trifluoro-1-hydroxyethyl)-1-indole]-propionamide], for which the inhibition in vivo at 100 mg/kg in assay [1] (intraduodenal, i.d.) came out at 69%; in assay [1] (ip, i.p.), 24%; in assay [1] (po, oral) it was 2%; in assay [1] (sc, s.c.), 7%. For the same compound, the “pH of the gastric fluid” value in assay [1] (i.d.) was 1.5; in assay [1] (i.p.), 1.2; in assay [1] (oral), 1.0; in assay [1] (s.c.), 1.0. Further, the inhibition in vivo at 50 mg/kg in assay [2] was 45%.
Take `Cc1c(C=O)c2ccccc2n1CCC(N)=O` [Example 4F, β-(2-Methyl-3-formyl-1-indole)propionamide]: in assay [1] (oral), the inhibition in vivo at 100 mg/kg is 0% and the “pH of the gastric fluid” value is reported as 1.2. In assay [2], this compound came in with an inhibition in vivo at 100 mg/kg of 9%.
For `Cc1c(C)n(CC(=O)NO)c2ccccc12` [Example 3B, 2,3-Dimethyl-1-indoleacetohydroxamic acid], the inhibition in vivo at 100 mg/kg in assay [1] (po, oral) was 20%; in assay [2] it was 99%.
`CCc1c(C)c2ccccc2n1CC(N)=O` [Example 1C, 2-Ethyl-3-methyl-1-indoleacetamide]: the inhibition in vivo at 100 mg/kg in assay [1] (po, oral) is 50%; in assay [2] it was 96%. For the same compound, in assay [1] (oral), the “pH of the gastric fluid” value is on record as 2.8. In assay [2], this compound showed an inhibition in vivo at 25 mg/kg of 84%.
With `Cc1c(CO)c2cc(F)ccc2n1CCC(N)=O` [Example 8E, β-(2-Methyl-3-hydroxymethyl-5-fluoro-1-indole)propionamide], the “Anti-Ulcer: ratio of number of animals with ulcers to total number of animals in the test group” value (from here on “Anti-Ulcer: ratio of number of animals”) in assay [3] is listed as 1/3. The inhibition in vivo at 100 mg/kg is 89% in assay [1] (intraduodenal, i.d.); 100% in assay [1] (ip, i.p.); 22% in assay [1] (po, oral); 100% in assay [1] (sc, s.c.). The “pH of the gastric fluid” value in assay [1] (i.d.) was 3.5; in assay [1] (i.p.), 5.9; in assay [1] (oral), 1.1; in assay [1] (s.c.) it was 6.1.
As for `Cc1c(CO)n(CCC(N)=O)c2ccccc12` [Example 8G, β-(2-hydroxymethyl-3-methyl-1-indole)propionamide], the inhibition in vivo at 100 mg/kg was 33% in assay [1] (intraduodenal, i.d.); 34% in assay [1] (ip, i.p.); 22% in assay [1] (po, oral). Further, the entries for the “pH of the gastric fluid” value in assay [1] (i.d.), in assay [1] (i.p.) and in assay [1] (oral) were 1.4, 1.7 and 1.3, respectively. Moreover, the “Anti-Ulcer: ratio of number of animals” value in assay [2] is 3/5.
With `Cc1c(C)n(CCC(N)=O)c2ccc(F)cc12` [Example 4C, β-(2,3-Dimethyl-5-fluoro-1-indole)propionamide], the inhibition in vivo at 100 mg/kg in assay [1] (po, oral) was 97%. For the same compound, the “pH of the gastric fluid” value in assay [1] (oral) amounted to 5.9. Besides, the inhibition in vivo at 25 mg/kg in assay [2] was determined as 94%.
In the case of `Cc1c(C=O)c2ccccc2n1CCCC(N)=O` [Example 4J, γ-(2-Methyl-3-formyl-1-indole)butyramide], in assay [1] (oral), the inhibition in vivo at 100 mg/kg was 17% and the “pH of the gastric fluid” value was 1.2. Also, the inhibition in vivo at 100 mg/kg in assay [2] worked out at 26%.
As for `Cc1c(C)n(CC(N)=S)c2ccccc12` [Example 7A, 2,3-dimethyl-1-indolethioacetamide], the inhibition in vivo at 100 mg/kg in assay [1] (po, oral) amounted to 58%. Besides, in assay [1] (oral), the “pH of the gastric fluid” value worked out at 2.3. In assay [2], this compound came in with an inhibition in vivo at 25 mg/kg of 75%.
As to `Cc1c(C=O)n(CCC(N)=O)c2ccccc12` [Example 4K, β-(2-Formyl-3-methyl-1-indole)propionamide], the inhibition in vivo at 100 mg/kg was determined as 37% in assay [1] (intraduodenal, i.d.) and 54% in assay [1] (ip, i.p.). Moreover, the entries for the “pH of the gastric fluid” value in assay [1] (i.d.), in assay [1] (i.p.) and in assay [1] (oral) were 1.54, 2.30 and 1.16, respectively. Further, the “Anti-Ulcer: ratio of number of animals” value in assay [2] is reported as 3/5.
Turning to `Cc1c(CO)c2ccccc2n1CC(N)=O` [Example 8C, 2-Methyl-3-hydroxymethyl-1-indoleacetamide], the “Anti-Ulcer: ratio of number of animals” value in assay [3] is on record as 0/5. The inhibition in vivo at 100 mg/kg amounted to 30% in assay [1] (intraduodenal, i.d.); 61% in assay [1] (ip, i.p.); 62% in assay [1] (po, oral); 100% in assay [1] (sc, s.c.). Further, the “pH of the gastric fluid” value in assay [1] (i.d.) is 1.1; in assay [1] (i.p.) it was 2.0; in assay [1] (oral), 1.5; in assay [1] (s.c.) it was 6.9.
Regarding `NC(=O)CCn1c(-c2ccccc2)c(C=O)c2ccccc21` [Example 4N, β-(2-Phenyl-3-formyl-1-indole)propionamide], the inhibition in vivo at 100 mg/kg was 0% in assay [1] (oral) and 0% in assay [1] (sc, s.c.). Besides, the “pH of the gastric fluid” value in assay [1] (oral) and in assay [1] (s.c.) was 1.0 in each case. Also, the “Anti-Ulcer: ratio of number of animals” value in assay [2] is 5/5.
Turning to `Cc1cn(CC(N)=O)c2ccccc12` [Reference, 3-methyl-1-indole-acetamide, reference compound], the inhibition in vivo at 100 mg/kg worked out at 62% in assay [1] (po, oral) and 75% in assay [2]. Also, the “pH of the gastric fluid” value in assay [1] (oral) stood at 2.3. Also, the “anti-secretory activity (in words)” value in assay [1] (rat, in vivo) is “has anti-secretory and anti-ulcer activities”. For the same compound, in assay [2] (rat, in vivo), the “anti-ulcer activity (in words)” value is “has anti-secretory and anti-ulcer activities”.
Regarding `Cc1c(C)n(CCC(=O)NO)c2ccccc12` [Example 3F, β-(2,3-Dimethyl-1-indole)propionohydroxamic acid], the inhibition in vivo at 100 mg/kg in assay [1] (po, oral) worked out at 34%. In addition, the “pH of the gastric fluid” value in assay [1] (oral) is reported as 1.3. Besides, in assay [2], the inhibition in vivo at 50 mg/kg is 95%.
As for `CCc1c(C)n(CC(N)=O)c2ccccc12` [Example 3C, 2-Methyl-3-ethyl-1-indoleacetamide], the inhibition in vivo at 100 mg/kg worked out at 86% in assay [1] (po, oral) and 97% in assay [2]. In addition, the “pH of the gastric fluid” value in assay [1] (oral) came to 2.8.

The values above are taken from patent publication US4069337A, “2-Substituted-indole-1-lower-alkanecarboxamides having anti-secretory or anti-ulcer activity” (Sterling Drug Inc., priority 1976, dated 1978).
